Data published in patent publication US20260217732A1, “WRN INHIBITOR” (SUZHOU PUHE BIOPHARMA CO., LTD., priority 2022, published 2026).
Like-named read-outs stand apart in the source and are kept apart here.

Key:
[1] = tested on: SW48 colorectal cancer cells; assay: 2D antiproliferation on MSI-H SW48 cells, CTG, 5 days; format: cell-based; settings: for IC50 / inhibition at 38.15 pM / inhibition at 0.000152588 µM / inhibition at 0.000610352 µM / inhibition at 0.00244141 µM / inhibition at 0.00976562 µM / inhibition at 0.0390625 µM / inhibition at 0.15625 µM / inhibition at 0.625 µM / inhibition at […] / inhibition at 10 µM: Homo sapiens; for IC50: 120 h, SW48 MSI-H, 5 days; for inhibition at 38.15 pM: SW48, 0.038146973 nM; for inhibition at 0.000152588 µM: SW48, 0.152587891 nM; for inhibition at 0.000610352 µM: SW48, 0.610351563 nM; for inhibition at 0.00244141 µM: SW48, 2.44140625 nM; for inhibition at 0.00976562 µM: SW48, 9.765625 nM; for inhibition at 0.0390625 µM: SW48, 39.0625 nM; for inhibition at 0.15625 µM: SW48, 156.25 nM; for inhibition at 0.625 µM: SW48, 625 nM; for inhibition at […]: SW48, 2500 nM; for inhibition at 10 µM: SW48, 10000 nM
Protocol: The molecules of the present disclosure were tested for their anti-proliferative activity on MSI-H tumor cells.
SW48 colorectal cancer cells with MSI were cultured in a RMI1640 medium containing 10% FBS and 1% penicillin-streptomycin, and the mixture was cultured in a 37° C., 5% CO2 incubator. 40 μL of cell suspension was added to each well of a 384-well microplate. […] of compounds with different concentrations were added to each well using Echo, and the mixtures were cultured in a 37° C., 5% CO2 incubator for 5 days. 40 μL of CTG solution (Promega, Cat No. G7573) was added to each well and incubated in a 37° C., 5% CO2 incubator in the dark for 30 minutes. The luminescence value was read using an Envision multi-function microplate reader (Perkin Elmer, catalog number Envision 2104). The optical signal is proportional to the amount of ATP in the system, while the ATP content directly characterizes the number of viable cells in the system.

[2] = tested on: HT-29 colorectal cancer cells; assay: 2D antiproliferation on MSS HT-29 cells, CTG, 5 days; format: cell-based; settings: Homo sapiens, 120 h, HT-29 MSS
Protocol: The molecules of the invention were tested for their anti-proliferative activities on MSS tumor cells.
HT-29 colorectal cancer cells with MSS were cultured in a McCoy's 5A medium containing 10% FBS and 1% penicillin-streptomycin in a 37° C., 5% CO2 constant temperature incubator. 40 μL of cell suspension was added to each well of a 384-well microplate. […] of compounds with different concentrations were added to each well using Echo. The mixtures were cultured in a 37° C., 5% CO2 constant temperature incubator for 5 days. 40 μL of CTG solution (Promega, Cat No. G7573) was added to each well, and the mixture was incubated in a 37° C., 5% CO2 constant temperature incubator for 30 minutes in the dark. The luminescence value was read using an Envision multi-function microplate reader (Perkin Elmer, catalog number Envision 2104). The optical signal is proportional to the amount of ATP in the system, while the ATP content directly characterizes the number of viable cells in the system.

[3] = tested on: SW48 (MSI-H) colorectal cancer tumor cells; assay: In vivo efficacy, SW48 xenograft in nude mice; parameters: species or system BALB/c nude mice; settings: QD, oral; for TGI: 21 days; for Tumor Volume D 1: day 1; for Tumor volume D 21: day 21
Protocol: In vivo efficacy experiment in BALB/C nude mice. Details are as follows:
SW48 (MSI-H) colorectal cancer tumor cells were cultured (in an L15 medium with 10% fetal bovine serum), and inoculated into 6-8 week old female BALB/c nude mice (with body weight of about 20 g). All the mice were inoculated subcutaneously. The mice were raised in an SPF-grade experimental environment, and all the mice were free to take commercially certified standard diets. When the tumors grew to an average volume of about 160 mm^3 in mice, the test compound was orally administered daily. […] The tumor volume was measured with a two-dimensional caliper three times a week, and the animals were weighed every day. […] The volume calculation formula is: V=1/2a*b^2, where a represents the long diameter of the tumor and b represents the short diameter of the tumor.

[4] = target: T1, WRN enzyme (Homo sapiens, UniProt Q14191); assay: WRN helicase hydrolysis (unwinding) of double-stranded DNA, fluorescence assay; format: biochemical; settings: 30 min pre-incubation, 60 min reaction
T1 construct: 10 μL (2×) of WRN enzyme solution was added
Protocol: • The molecules of the present disclosure were tested for their activities on the WRN helicase hydrolysis of double-stranded DNA (Table 1).
A working solution to be tested and a buffer were prepared. The compound to be tested was dissolved in DMSO and subjected to 4× dilution (with 10 μM final concentration as the starting concentration). 0.2 μL of the solution of the compound to be tested was added to the 384-well plate and 10 μL (2×) of WRN enzyme solution was added. The solution was incubated in the dark for 30 minutes. Then, 10 μL of a substrate detection solution containing double-stranded DNA was added to initiate the reaction (the DNA has a length of 19 bp, and labeled with TAMRA and BHQ2 at 3′ and 5′-ends, respectively). The solution was incubated at room temperature for 60 minutes. The inhibitory activities (IC50) against WRN enzyme were calculated based on the change of Ex530/Em590 in the blank group (DMSO) and the compound group.

[5] = female, CD1, mouse, in vivo
Protocol: (§1) Mouse Pharmacokinetic Evaluation Experiment
(§2) CD1 female mice were used as test animals to be administered orally/intravenously (with oral dosage of 10 mg/kg or intravenous dosage of 2 mg/kg).
(§3) Experimental scheme: The oral administration group comprised 3 mice per group (Solvent: 10% Hβ-CD-pH7.4), and the intravenous group comprised 3 mice per group. […] The blood concentration in the plasma of mice was determined using the LC/MS/MS method after the oral or intravenous administration, respectively, and the collected data were calculated using the AB Sciex QTRAP 6500 software.

[6] = in vivo; settings: female, CD1, mouse
Protocol: as §1, §2, §3

[7] = read-out: Average Value/Inhibition Rate
[8] = read-out: Test 1/Inhibition Rate
[9] = read-out: Test 2/Inhibition Rate

T1 sequence (Q14191 whole entry): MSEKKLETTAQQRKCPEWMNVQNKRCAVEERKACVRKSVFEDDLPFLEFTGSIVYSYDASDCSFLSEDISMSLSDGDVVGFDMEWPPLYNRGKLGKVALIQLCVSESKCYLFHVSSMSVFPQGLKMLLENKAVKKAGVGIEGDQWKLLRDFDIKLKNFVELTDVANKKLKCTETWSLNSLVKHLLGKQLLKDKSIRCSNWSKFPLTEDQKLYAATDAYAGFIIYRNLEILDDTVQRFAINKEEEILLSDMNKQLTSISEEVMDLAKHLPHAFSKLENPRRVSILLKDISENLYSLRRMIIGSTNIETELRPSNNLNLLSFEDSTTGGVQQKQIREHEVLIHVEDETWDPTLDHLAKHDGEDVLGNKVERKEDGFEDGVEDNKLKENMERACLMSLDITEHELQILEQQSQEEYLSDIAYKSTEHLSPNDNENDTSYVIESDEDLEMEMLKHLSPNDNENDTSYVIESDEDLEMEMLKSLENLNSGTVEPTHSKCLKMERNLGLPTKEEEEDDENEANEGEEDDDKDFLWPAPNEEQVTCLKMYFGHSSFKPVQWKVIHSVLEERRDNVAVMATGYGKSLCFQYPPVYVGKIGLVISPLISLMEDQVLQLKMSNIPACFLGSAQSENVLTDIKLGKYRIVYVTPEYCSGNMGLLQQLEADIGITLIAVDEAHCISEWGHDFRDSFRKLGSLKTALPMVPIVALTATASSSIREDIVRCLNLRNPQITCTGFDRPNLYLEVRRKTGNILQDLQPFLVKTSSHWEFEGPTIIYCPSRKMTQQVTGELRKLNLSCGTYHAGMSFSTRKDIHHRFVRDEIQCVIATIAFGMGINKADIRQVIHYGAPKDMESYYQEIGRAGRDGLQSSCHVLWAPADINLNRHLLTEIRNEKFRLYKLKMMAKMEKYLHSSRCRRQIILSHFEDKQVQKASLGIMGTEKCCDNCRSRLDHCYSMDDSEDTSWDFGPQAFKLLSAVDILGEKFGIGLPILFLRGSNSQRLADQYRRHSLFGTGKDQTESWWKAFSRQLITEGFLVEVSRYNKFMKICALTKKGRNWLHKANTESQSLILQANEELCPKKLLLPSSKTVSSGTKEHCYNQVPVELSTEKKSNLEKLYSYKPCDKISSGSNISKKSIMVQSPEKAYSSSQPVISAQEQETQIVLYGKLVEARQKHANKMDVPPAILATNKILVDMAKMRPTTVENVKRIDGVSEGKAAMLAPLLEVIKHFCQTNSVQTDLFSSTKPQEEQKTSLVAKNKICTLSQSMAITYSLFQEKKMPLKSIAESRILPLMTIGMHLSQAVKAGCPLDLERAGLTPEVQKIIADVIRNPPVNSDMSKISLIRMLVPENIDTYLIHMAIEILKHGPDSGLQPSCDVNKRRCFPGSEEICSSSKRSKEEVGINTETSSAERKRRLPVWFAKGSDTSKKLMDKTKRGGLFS

IC50 [1] [nM]	IC50 [2] [nM]	IC50 [4] [nM]	Compound	inhibition at 38.15 pM [1, 7] [%]	inhibition at 38.15 pM [1, 8] [%]	inhibition at 38.15 pM [1, 9] [%]	inhibition at 0.000152588 µM [1, 7] [%]	inhibition at 0.000152588 µM [1, 8] [%]	inhibition at 0.000152588 µM [1, 9] [%]	inhibition at 0.000610352 µM [1, 7] [%]	inhibition at 0.000610352 µM [1, 8] [%]	inhibition at 0.000610352 µM [1, 9] [%]	inhibition at 0.00244141 µM [1, 7] [%]	inhibition at 0.00244141 µM [1, 8] [%]	inhibition at 0.00244141 µM [1, 9] [%]	inhibition at 0.00976562 µM [1, 7] [%]	inhibition at 0.00976562 µM [1, 8] [%]	inhibition at 0.00976562 µM [1, 9] [%]	inhibition at 0.0390625 µM [1, 7] [%]	inhibition at 0.0390625 µM [1, 8] [%]	other results
39	> 10000	1.1	CCc1c(N2CCN(C(=O)c3ncnc(C)c3O)CC2)c(=O)n2nc(-c3cc4c(s3)COC4)nc2n1CC(=O)Nc1ccc(Br)cc1Cl [P24]	-4.41	-3.47	-5.36	-3.37	-6.51	-0.227	-6.66	-6.64	-6.68	-5.26	-4.87	-5.64	-8.31	-8.85	-7.77	43.7	40.3	inhibition at 0.0390625 µM [1, 9]: 47.1%; inhibition at 0.15625 µM [1, 7]: 98.7%; inhibition at 0.15625 µM [1, 8]: 98.6%; inhibition at 0.15625 µM [1, 9]: 98.8%; inhibition at 0.625 µM [1, 7]: 97.4%; inhibition at 0.625 µM [1, 8]: 97.6%; inhibition at 0.625 µM [1, 9]: 97.2%; inhibition at […] [1, 7]: 97.6%; inhibition at […] [1, 8]: 96.9%; inhibition at […] [1, 9]: 98.3%; inhibition at 10 µM [1, 7]: 97.3%; inhibition at 10 µM [1, 8]: 97.4%; inhibition at 10 µM [1, 9]: 97.3%; TGI ([3]; 50 mg/kg): 105%; Tumor Volume D 1 ([3]; 50 mg/kg): 161 mm^3; Tumor volume D 21 ([3]; 50 mg/kg): 72 mm^3
32	> 10000	2.1	CCc1c(N2CCN(C(=O)c3ncnc(C)c3O)CC2)c(=O)n2nc(-c3cc4c(s3)COC4)nc2n1CC(=O)Nc1ccc(C(F)(F)F)cc1C [P29]	18.3	18	18.6	25.6	26.1	25.1	14.7	19.4	9.96	19.8	12.8	26.8	21.2	17.4	25.1	70.9	70.9	inhibitory activity on SW48 cells ([1]; 39 nM): high inhibitory activity; inhibition at 0.0390625 µM [1, 9]: 70.9%; inhibition at 0.15625 µM [1, 7]: 97.3%; inhibition at 0.15625 µM [1, 8]: 96.5%; inhibition at 0.15625 µM [1, 9]: 98.1%; inhibition at 0.625 µM [1, 7]: 99.4%; inhibition at 0.625 µM [1, 8]: 99.1%; inhibition at 0.625 µM [1, 9]: 99.6%; inhibition at […] [1, 7]: 99%; inhibition at […] [1, 8]: 99.1%; inhibition at […] [1, 9]: 99%; inhibition at 10 µM [1, 7]: 99.8%; inhibition at 10 µM [1, 8]: 100%; inhibition at 10 µM [1, 9]: 99.6%; TGI ([3]; 120 mg/kg): 105%; Tumor Volume D 1 ([3]; 120 mg/kg): 174 mm^3; Tumor volume D 21 ([3]; 120 mg/kg): 36 mm^3
34	> 10000	1.3	CCc1c(N2CCN(C(=O)c3ncnc(C)c3O)CC2)c(=O)n2nc(-c3cc4c(s3)COC4)nc2n1CC(=O)Nc1ccc(C(F)(F)F)c2ccoc12 [P57]	–	–	–	–	–	–	–	–	–	–	–	–	–	–	–	–	–	F [5]: 57%; AUC(0-t) ([6]; iv, 2 mg/kg): 3150 ng·h/mL; C0 ([6]; iv, 2 mg/kg): 2920 ng/mL; clearance ([6]; iv, 2 mg/kg): 10.5 mL/min/kg; half-life ([6]; iv, 2 mg/kg): 1.2 h; AUC(0-t) ([6]; po, 10 mg/kg): 8930 ng·h/mL; Cmax ([6]; po, 10 mg/kg): 4260 ng/mL; Tmax ([6]; po, 10 mg/kg): 0.5 h; half-life ([6]; po, 10 mg/kg): 1.4 h
